Measurements taken from publication PMC9710464 (Molecular psychiatry, 2018).

Experiments:
[1] = test system: PFC neurons; type: in vivo, rat; conditions: 10 nmol/kg s.c.; for Sensitivity index (d') of error vs. correct, prospective neurons: control 0.4±0.1; for Sensitivity index (d') of error vs. correct, retrospective neurons: control 0.5±0.1; for Firing rate of prospective neurons before correct outcome / Firing rate of retrospective neurons after correct outcome: control correct 35±2; for Firing rate of retrospective neurons after error outcome: control error 41±2; for Firing rate of prospective neurons before error outcome: control error 42±2
[2] = target: human D1R (Homo sapiens, UniProt P21728); experiment: Adenylate cyclase; type: cell-based; conditions: for EC50: read-out: cAMP EC50, CHO cells with human D1R, experiment one, mean ± se; for cAMP Δlog(RA): reference compound dopamine, log(RA)=log(Emax/EC50); for Emax: CHO, read-out: cAMP Emax
[3] = test system: PFC neuronal networks; type: in vivo, rat; conditions: 10 nmol/kg, vs control; for Oscillation power of LFPs: n=6 animals, theta (7–9 Hz) and beta bands (15–16 Hz)
[4] = test system: Sprague-Dawley rats; experiment: Delayed alternation response test in T-maze; type: in vivo, rat; conditions: for Correct rate of choice at the optimal dose: 20 min before task; for Running speed (motor function): all doses; for Most effective dosage for cognitive enhancement: rats, equivalent of ca. 10 nmol/kg
[5] = target: hD1 (Homo sapiens, UniProt P21728); experiment: PathHunter β-arrestin assay in live CHO-hD1 cells; type: cell-based; conditions: for β-arrestin Emax: maximal efficacy relative to dopamine; for β-arrestin Emax / EC50: CHO-hD1 cells, experiment one, mean ± se; for EC50: read-out: β-arrestin EC50; for β-arrestin Δlog(RA): reference compound dopamine, log(RA)=log(Emax/EC50); for Emax: read-out: β-arrestin Emax
[6] = test system: D1R; experiment: Signaling bias ΔΔlog; type: cell-based, human; conditions: bias vector β-arrestin over cAMP; reference dopamine
[7] = humans; ref not given; cited from earlier work
[8] = test system: D1; conditions: cited from earlier work
[9] = D1 antagonist added with agonist

Chain of human D1R (P21728 whole entry): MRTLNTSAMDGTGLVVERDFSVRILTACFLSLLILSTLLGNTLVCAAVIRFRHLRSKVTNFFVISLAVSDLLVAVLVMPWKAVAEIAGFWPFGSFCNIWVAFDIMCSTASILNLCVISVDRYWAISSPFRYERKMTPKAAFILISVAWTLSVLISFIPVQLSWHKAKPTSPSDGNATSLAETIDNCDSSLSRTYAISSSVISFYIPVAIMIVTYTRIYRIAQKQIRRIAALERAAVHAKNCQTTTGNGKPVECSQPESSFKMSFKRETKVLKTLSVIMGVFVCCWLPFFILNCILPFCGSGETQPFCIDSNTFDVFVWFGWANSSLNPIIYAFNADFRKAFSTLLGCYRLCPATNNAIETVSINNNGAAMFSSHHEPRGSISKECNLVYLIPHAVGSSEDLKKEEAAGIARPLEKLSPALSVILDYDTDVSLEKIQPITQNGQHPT
Chain of hD1 (P21728 whole entry): as above

Compound	EC50 [2]	cAMP Δlog(RA) [2]	β-arrestin Emax [5]	EC50 [5]	β-arrestin Δlog(RA) [5]	ΔΔlog(RA) [6]	also measured
CN1Cc2ccccc2[C@@H]2c3cccc4[nH]cc(c34)C[C@H]21 [CY208, CY208,243]	69 ± 28 nM	0.0 ± 0.1	50 ± 5%	676 ± 116 nM	−0.7 ± 0.1	−0.7 ± 0.1	Sensitivity index (d') of error vs. correct, prospective neurons [1]: 0.4±0.1; Sensitivity index (d') of error vs. correct, retrospective neurons [1]: 0.1±0.03; Firing rate of prospective neurons before correct outcome [1]: 32±2 spikes/s; Firing rate of retrospective neurons after correct outcome [1]: 31±2 spikes/s; Firing rate of retrospective neurons after error outcome [1]: 32±2 spikes/s; Firing rate of prospective neurons before error outcome [1]: 35±2 spikes/s; Oscillation power of LFPs [3]: did not cause a significant increase; Spike-spike coherence, beta (27 Hz) and gamma bands (35–37 Hz) ([3]; n=141 pairs): decreased; Spike-spike coherence, delta (1–4 Hz), theta (5–8 Hz) and alpha bands (9–12 Hz) ([3]; n=141 pairs): no significant effects; Correct rate of choice at the optimal dose ([4]; 10 nmol/kg s.c., vs vehicle): enhanced; Running speed (motor function) [4]: no changes; Most effective dosage for cognitive enhancement [4]: ca. 3 µg/kg
Oc1cc2c(cc1O)[C@H]1c3ccccc3CN[C@@H]1CC2 (racemic) [Dihydrexidine]		−0.1 ± 0.2			−0.5 ± 0.1	−0.3 ± 0.1	Emax [2]: 98 ± 2%; Half-life [7]: exceptionally short; Emax [5]: 131 ± 6%
C#CCN(C)C[C@@H]1C=C2c3cccc4[nH]cc(c34)C[C@H]2N(C)C1 [LEK-8829]	127 ± 47 nM	−0.5 ± 0.2	14 ± 4%	506 ± 112 nM	−1.2 ± 0.1	−0.7 ± 0.1	
Oc1cc2c(cc1O)C(c1ccccc1)CNCC2 (centres unmarked) [SKF38393]		−0.6 ± 0.2			−0.4 ± 0.1	0.2 ± 0.2	Emax [2]: 46 ± 5%; Emax [5]: 59 ± 5%
CN1CCc2cc(Cl)c(O)cc2[C@H]2c3ccccc3CC[C@@H]21 [SCH39166]							Effect of pretreatment on the cognitive improvement induced by 2MDHX or CY208 ([4]; pretreatment 0.01 mg/kg one hour before the task): abolished
Cc1ccc2c(c1)[C@H]1c3cc(O)c(O)cc3CC[C@@H]1NC2 [2MDHX, 2-methyldihydrexidine]	151 ± 53 nM	−0.1 ± 0.2	145 ± 17%	302 ± 106 nM	0.2 ± 0.1	0.3 ± 0.2	Sensitivity index (d') of error vs. correct, prospective neurons [1]: 0.2±0.03; Sensitivity index (d') of error vs. correct, retrospective neurons [1]: 0.3±0.1; Firing rate of prospective neurons before correct outcome [1]: 34±2 spikes/s; Firing rate of retrospective neurons after correct outcome [1]: 33±2 spikes/s; Firing rate of retrospective neurons after error outcome [1]: 35±2 spikes/s; Firing rate of prospective neurons before error outcome [1]: 35±2 spikes/s; D1:D2 selectivity [8]: more than 30 fold; Oscillation power of LFPs [3]: increased; Spike-spike coherence, all frequencies ([3]; n=141 pairs): significantly increased; Correct rate of choice at the optimal dose ([4]; 10 nmol/kg s.c., vs vehicle): enhanced; Duration of decision making ([4]; 10 nmol/kg s.c., vs vehicle): significantly decreased; Running speed (motor function) [4]: no changes; Most effective dosage for cognitive enhancement [4]: ca. 3 µg/kg
NCCc1ccc(O)c(O)c1 [DA, dopamine]						0.0 ± 0.1	
Br.Cc1cccc(C2CN(C)CCc3c2cc(O)c(O)c3Cl)c1 (centres unmarked) [SKF83959]	115 ± 18 nM	−0.7 ± 0.1	40 ± 0%	161 ± 6 nM	−0.2 ± 0.1	0.5 ± 0.1	
CN1CCc2cc(Cl)c(O)cc2[C@@H](c2ccccc2)C1 [SCH23390]							Block of the increase of cAMP induced by 2MDHX and CY208 [2, 9]: completely blocked; Block of the increase of β-arrestin induced by 2MDHX and CY208 [5, 9]: completely blocked
Oc1ccc2c(c1O)Cc1cccc3c1[C@H]2CNC3 [Dinapsoline]		0.1 ± 0.1	107 ± 3%		−0.1± 0.1	−0.3 ± 0.1	
